The results in this text go back to paper PMC9740559, “Molecular and Pharmacological Characterization of β-Adrenergic-like Octopamine Receptors in the Endoparasitoid Cotesia chilonis (Hymenoptera: Braconidae)” (International Journal of Molecular Sciences, 2022).

Molecules are shown by their SMILES.

Assay [1] deals with T1, CcOctβ2R.
T1 construct: gene Octβ2R; full-length ORF, 435 residues; pcDNA3.0 vector with hemagglutinin A tag
The assay is described as follows: cAMP production in stable CHO-K1 cells (cAMP immunoassay). The class given is cell-based, Cotesia chilonis. The following applies: agonist; 100 μM IBMX; 25 °C. The text has this: cAMP production in stable CHO-K1 cells (cAMP immunoassay) on CcOctβ2R
(cAMP levels reflect the balance of adenylyl cyclase and phosphodiesterase activity.)

For assay [2], the system named is T2, CcOctβ1R.
T2 construct: gene Octβ1R; full-length ORF, 417 residues; pcDNA3.0 vector with hemagglutinin A tag
Described as above. The assay is classed as cell-based, Cotesia chilonis. The following applies: agonist; 100 μM IBMX; 25 °C. The text has this: cAMP production in stable CHO-K1 cells (cAMP immunoassay) on CcOctβ1R

In assay [3] the test system is T3, CcOctβ3R.
T3 construct: gene Octβ3R; full-length ORF, 358 residues; pcDNA3.0 vector with hemagglutinin A tag
The assay is described as above. The assay is classed as cell-based, Cotesia chilonis. The following applies: agonist; 100 μM IBMX; 25 °C.
From the text: cAMP production in stable CHO-K1 cells (cAMP immunoassay) on CcOctβ3R

For assay [4], the system named is T4, CcOctβ2R.
T4 construct: gene Octβ2R
The following applies: read-out: CcOctβ2R / IC50; antagonist; non-saturating OA (30 nM); 100 μM IBMX; 25 °C. The text has this:
inhibition of OA-induced cAMP in stable CHO-K1 cells (cAMP immunoassay) on CcOctβ2R

Assay [5] deals with T5, CcOctβ3R.
T5 construct: gene Octβ3R
The following applies: read-out: CcOctβ3R / IC50; antagonist; non-saturating OA (300 nM); 100 μM IBMX; 25 °C. The text has this:
inhibition of OA-induced cAMP in stable CHO-K1 cells (cAMP immunoassay) on CcOctβ3R

The subject of assay [6] is T6, CcOctβ1R.
T6 construct: gene Octβ1R
The following applies: read-out: CcOctβ1R / IC50; antagonist; non-saturating OA (100 nM); 100 μM IBMX; 25 °C. An excerpt:
inhibition of OA-induced cAMP in stable CHO-K1 cells (cAMP immunoassay) on CcOctβ1R

The EC50 is the concentration at which the effect is half-maximal. Read a high EC50 as a less potent agent. Turning to `Cc1ccc(/N=C/N(C)/C=N/c2ccc(C)cc2C)c(C)c1` [Amitraz], the 50% effective concentration (EC50) with CcOctβ2R [1] was 3.27 nM; in the assay with CcOctβ1R [2] it was 16.5 nM.

Regarding `CN=CNc1ccc(C)cc1C` [DPMF, N^2-(2,4-dimethylphenyl)-N^1-methyformamidine], the results for the EC50 with CcOctβ2R [1], with CcOctβ3R [3] and in the assay on CcOctβ1R [2] were 2.37 nM, 4.35 nM and 9.25 nM, respectively.

As to `NC1=NCC2c3ccccc3Cc3ccccc3N12` (centres unmarked) [Epinastine], the IC50 in the assay with CcOctβ2R [4] is 14.4 nM; with CcOctβ3R [5], 7.34 nM; in the assay on CcOctβ1R [6], 37.6 nM.

As to `c1ccc2c(CC3=NCCN3)cccc2c1` [Naphazoline], the 50% effective concentration (EC50) came to 0.0157 nM in the assay with CcOctβ2R [1], 5.06 nM in the assay with CcOctβ3R [3] and 0.231 nM in the assay on CcOctβ1R [2].

On to `NC[C@H](O)c1ccc(O)cc1` [OA], for which the EC50 turned out to be 6.69 nM with CcOctβ2R [1], 33.6 nM with CcOctβ3R [3] and 39 nM in the assay with CcOctβ1R [2].
